Results: paper PMC6199744, “Development of Chemical Proteomics for the Folateome and Analysis of the Kinetoplastid Folateome” (ACS Infectious Diseases, 2018)
Where two headings read alike, the source gives them in different places.

Tests used:
Assay type in all cases: binding
[1] = target: T1, HeLa cell extract proteins (Homo sapiens, UniProt P31327)
T1 construct: endogenous in cells; host or cells: HeLa cell extract
T1 sequence (P31327 39-1500): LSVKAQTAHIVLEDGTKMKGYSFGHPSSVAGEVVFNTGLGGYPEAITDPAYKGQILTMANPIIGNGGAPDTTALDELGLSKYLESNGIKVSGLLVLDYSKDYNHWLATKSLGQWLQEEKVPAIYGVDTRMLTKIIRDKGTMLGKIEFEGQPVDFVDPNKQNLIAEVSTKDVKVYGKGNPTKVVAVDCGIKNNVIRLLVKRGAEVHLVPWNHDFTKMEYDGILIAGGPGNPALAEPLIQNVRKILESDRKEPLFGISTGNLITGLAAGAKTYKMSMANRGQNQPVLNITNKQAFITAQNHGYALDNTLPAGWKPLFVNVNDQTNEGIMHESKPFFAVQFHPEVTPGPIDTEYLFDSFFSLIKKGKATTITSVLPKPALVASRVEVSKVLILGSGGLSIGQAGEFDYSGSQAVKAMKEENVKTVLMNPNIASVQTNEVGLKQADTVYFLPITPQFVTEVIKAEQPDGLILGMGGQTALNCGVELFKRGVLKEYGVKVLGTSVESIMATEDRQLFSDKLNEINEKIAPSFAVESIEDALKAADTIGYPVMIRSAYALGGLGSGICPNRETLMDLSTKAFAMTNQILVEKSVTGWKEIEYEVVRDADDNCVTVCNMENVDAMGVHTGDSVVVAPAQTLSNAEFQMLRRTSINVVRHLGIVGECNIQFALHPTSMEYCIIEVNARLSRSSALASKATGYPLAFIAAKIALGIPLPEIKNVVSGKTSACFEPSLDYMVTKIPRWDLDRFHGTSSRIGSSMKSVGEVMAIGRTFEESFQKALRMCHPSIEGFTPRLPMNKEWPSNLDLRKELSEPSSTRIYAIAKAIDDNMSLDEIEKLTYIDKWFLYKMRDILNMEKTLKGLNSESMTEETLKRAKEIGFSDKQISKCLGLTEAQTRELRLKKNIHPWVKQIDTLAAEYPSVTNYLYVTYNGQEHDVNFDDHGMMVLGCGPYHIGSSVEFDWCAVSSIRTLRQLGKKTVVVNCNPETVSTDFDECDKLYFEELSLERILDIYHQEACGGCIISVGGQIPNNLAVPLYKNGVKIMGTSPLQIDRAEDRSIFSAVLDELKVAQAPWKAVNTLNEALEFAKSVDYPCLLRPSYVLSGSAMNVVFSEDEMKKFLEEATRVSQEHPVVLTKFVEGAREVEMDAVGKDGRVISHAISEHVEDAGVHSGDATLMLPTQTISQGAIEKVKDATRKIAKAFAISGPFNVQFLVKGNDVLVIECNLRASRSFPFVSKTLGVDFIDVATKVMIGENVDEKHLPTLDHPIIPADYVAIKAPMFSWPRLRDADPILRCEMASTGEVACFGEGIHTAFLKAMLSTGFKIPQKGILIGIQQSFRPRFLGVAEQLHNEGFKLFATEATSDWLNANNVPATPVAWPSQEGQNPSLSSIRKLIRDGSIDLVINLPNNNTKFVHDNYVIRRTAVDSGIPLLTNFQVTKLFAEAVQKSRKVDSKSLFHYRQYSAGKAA

[2] = target: T2, HeLa cell extract proteins (Homo sapiens, UniProt Q9H0U4)
T2 construct: endogenous in cells; host or cells: HeLa cell extract
T2 sequence (Q9H0U4 whole entry): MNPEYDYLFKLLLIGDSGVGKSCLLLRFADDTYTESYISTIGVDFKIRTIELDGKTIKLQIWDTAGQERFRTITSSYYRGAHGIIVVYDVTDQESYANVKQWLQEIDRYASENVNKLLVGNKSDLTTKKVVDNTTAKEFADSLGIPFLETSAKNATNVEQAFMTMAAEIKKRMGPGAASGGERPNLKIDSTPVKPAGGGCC

[3] = target: T3, HeLa cell extract proteins (Homo sapiens, UniProt P51398)
T3 construct: endogenous in cells; host or cells: HeLa cell extract

[4] = target: T4, HeLa cell extract proteins (Homo sapiens, UniProt P63244)
T4 construct: endogenous in cells; host or cells: HeLa cell extract

[5] = target: T5, HeLa cell extract proteins (Homo sapiens, UniProt P50416)
T5 construct: endogenous in cells; host or cells: HeLa cell extract
T5 sequence (P50416 1-773): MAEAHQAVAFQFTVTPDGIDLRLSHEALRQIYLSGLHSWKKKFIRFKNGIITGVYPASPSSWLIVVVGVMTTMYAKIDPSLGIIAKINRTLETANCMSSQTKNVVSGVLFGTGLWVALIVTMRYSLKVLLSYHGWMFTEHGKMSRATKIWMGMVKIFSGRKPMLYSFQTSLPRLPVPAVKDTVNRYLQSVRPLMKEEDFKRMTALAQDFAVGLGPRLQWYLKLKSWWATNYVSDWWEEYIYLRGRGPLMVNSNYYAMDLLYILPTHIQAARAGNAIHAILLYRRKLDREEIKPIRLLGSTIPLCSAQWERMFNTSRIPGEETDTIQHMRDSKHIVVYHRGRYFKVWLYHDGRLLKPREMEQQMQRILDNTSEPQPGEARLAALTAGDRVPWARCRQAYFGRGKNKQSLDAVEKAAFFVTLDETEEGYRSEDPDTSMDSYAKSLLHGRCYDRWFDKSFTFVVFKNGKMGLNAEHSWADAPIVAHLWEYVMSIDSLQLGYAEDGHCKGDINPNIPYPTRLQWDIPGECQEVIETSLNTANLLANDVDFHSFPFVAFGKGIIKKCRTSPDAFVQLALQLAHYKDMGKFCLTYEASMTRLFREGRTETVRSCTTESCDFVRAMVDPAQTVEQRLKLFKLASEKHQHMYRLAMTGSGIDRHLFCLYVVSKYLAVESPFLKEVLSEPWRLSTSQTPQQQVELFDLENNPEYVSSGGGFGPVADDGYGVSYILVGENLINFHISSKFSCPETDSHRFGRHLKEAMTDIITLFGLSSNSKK

[6] = target: T6, HeLa cell extract proteins (Homo sapiens, UniProt P25705)
T6 construct: endogenous in cells; host or cells: HeLa cell extract
T6 sequence (P25705 44-553): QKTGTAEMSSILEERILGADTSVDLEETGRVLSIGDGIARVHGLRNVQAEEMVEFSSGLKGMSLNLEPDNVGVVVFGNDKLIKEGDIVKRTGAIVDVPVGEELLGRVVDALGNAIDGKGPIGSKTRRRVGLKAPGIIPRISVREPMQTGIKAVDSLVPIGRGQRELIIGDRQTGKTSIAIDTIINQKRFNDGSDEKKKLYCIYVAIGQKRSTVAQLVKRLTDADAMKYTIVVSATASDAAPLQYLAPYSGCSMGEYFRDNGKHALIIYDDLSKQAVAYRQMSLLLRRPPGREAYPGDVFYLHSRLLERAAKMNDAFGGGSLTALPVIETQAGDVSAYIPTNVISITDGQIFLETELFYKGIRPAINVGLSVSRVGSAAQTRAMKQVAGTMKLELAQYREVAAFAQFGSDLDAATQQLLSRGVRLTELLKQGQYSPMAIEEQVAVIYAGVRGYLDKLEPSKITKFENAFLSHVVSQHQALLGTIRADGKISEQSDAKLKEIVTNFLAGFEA

SMILES	fold changes relative to vehicle control ([1]; HeLa, captured protein CPS1)	fold changes relative to vehicle control ([2]; HeLa, protein RAB1B)	fold changes relative to vehicle control ([3]; HeLa, captured protein DAP3)	fold changes relative to vehicle control ([4]; HeLa, protein GNB2L1)	fold changes relative to vehicle control ([5]; HeLa, protein CPT1A)	fold changes relative to vehicle control ([6]; HeLa, captured protein ATP5A1)	fold changes relative to vehicle control [1]	fold changes relative to vehicle control [2]	fold changes relative to vehicle control [3]	fold changes relative to vehicle control [4]	fold changes relative to vehicle control [5]	fold changes relative to vehicle control [6]	fold changes relative to vehicle control ([1]; protein CPS1, HeLa)	fold changes relative to vehicle control ([2]; protein RAB1B, HeLa)	fold changes relative to vehicle control ([3]; protein DAP3, HeLa)	fold changes relative to vehicle control ([5]; captured protein CPT1A, HeLa)	fold changes relative to vehicle control ([6]; HeLa, protein ATP5A1)
Nc1nc2c(c(=O)[nH]1)N(C=O)C(CNc1ccc(C(=O)N[C@@H](CCC(=O)O)C(=O)O)cc1)CN2 (stereo partly drawn) [LEU, leucovorin]	1.13	0.93	0.98	1.08	0.88	0.99											
Nc1nc2[nH]cc(CCc3ccc(C(=O)N[C@@H](CCC(=O)O)C(=O)O)cc3)c2c(=O)[nH]1 [PTX, pemetrexed]							1.08	0.93	0.9	1.08	0.84	0.94					
CCCCCCOc1ccc(Cc2cnc(N)nc2N)cc1 [compound 1]				1.12									1.27	1.14	1.27	0.9	1
CCCCCCOc1cccc(Cc2cnc(N)nc2N)c1 [compound 2]				1.19									1.61	1.41	1.16	1.04	0.97
Nc1nc2cccc(-c3ccccc3)c2n1Cc1ccc(Cl)c(Cl)c1 [compound 3]				1.12									1.09	1.09	1	0.95	0.87
NCCOCCOCC(=O)Nc1nc2ncc(CNc3ccc(C(=O)NC(CCC(=O)O)C(=O)O)cc3)nc2c(=O)[nH]1 (stereo not drawn) [compound 6]	1.27	0.98	0.84	1.12	1.01	0.95											
NCCCNc1ccc(C(=O)NC(CCC(=O)O)C(=O)O)cc1 (stereo not drawn) [compound 7]	1.05	0.91	0.94	0.99	0.99	0.99											
